Measured values as given in patent publication US10208033B2, “β-carboline, dihydro-β-carboline and tetrahydro-β-carboline alkaloid derivatives and preparation methods same and use in aspects of preventing and treating plant viruses, fungicides and insecticides” (NANKAI UNIVERSITY, priority 2013, dated 2019).

What was measured:
[1] = tested on: Rhizoctonia solani; assay: Fungicidal (bactericidal) activity in vitro, PDA colony diameter; assay type: cell-based; conditions: Rhizoctonia solani, 96 h; 50 mg/kg
[2] = tested on: Fusarium fujikuroi; assay: as above; assay type: cell-based; conditions: Fusarium fujikuroi, 96 h; 50 mg/kg
[3] = tested on: tobacco mosaic virus (TMV); assay: Anti-TMV in vivo protective effect; set-up: species or system tobacco mosaic virus (host Nicotiana tabacum L.cv.Xanthi NN); conditions: Tobacco mosaic virus, read-out: Relative inhibition rate (%) In vivo protection
[4] = tested on: tobacco mosaic virus (TMV); assay: Anti-TMV in vivo therapeutic effect; set-up: species or system tobacco mosaic virus (host Nicotiana tabacum L.cv.Xanthi NN); conditions: Tobacco mosaic virus, read-out: Relative inhibition rate (%) In vivo therapy
[5] = tested on: cotton bollworms; assay: whole plant or invertebrate; conditions: Helicoverpa armigera, in Gossypium hirsutum, read-out: Cotton bollworm Mortality (%)
Protocol: Experimental method of cotton bollworms: feed and drug mixing method: measure 3 mL of prepared solution and add it to about 27 g of newly prepared feed, thereby obtaining needed concentration through dilution by 10 times.

[6] = tested on: Cercospora arachidicola; assay: Fungicidal (bactericidal) activity in vitro, PDA colony diameter; assay type: cell-based; conditions: Mycosphaerella arachidis, 96 h; 50 mg/kg
[7] = tested on: Fusarium graminearumt; assay: microbe, parasite or virus in culture; assay type: cell-based; conditions: Fusarium, 96 h, read-out: Bactericidal activity (%) Fusarium graminearumt
[8] = tested on: tobacco mosaic virus (TMV); assay: Anti-TMV in vivo inactivation; set-up: species or system tobacco mosaic virus (host Nicotiana tabacum L.cv.Xanthi NN); conditions: Tobacco mosaic virus, read-out: Relative inhibition rate (%) In vivo inactivation
[9] = tested on: corn borers; assay: whole plant or invertebrate; conditions: read-out: Corn borer Mortality (%)
[10] = tested on: Colletotrichum orbiculare; assay: Fungicidal (bactericidal) activity in vitro, PDA colony diameter; assay type: cell-based; conditions: Colletotrichum orbiculare, 96 h; 50 mg/kg
[11] = tested on: Alternaria solani; assay: as above; assay type: cell-based; conditions: Alternaria solani, 96 h; 50 mg/kg
[12] = tested on: Rhizoctonia cereali; assay: as above; assay type: cell-based; conditions: Rhizoctonia, 96 h; 50 mg/kg
[13] = tested on: Macrophoma kawatsukai; assay: as above; assay type: cell-based; conditions: 50 mg/kg
[14] = tested on: mosquito larvae; assay: whole plant or invertebrate; conditions: for mortality at 5 mg/kg / mortality at 10 mg/kg: Culex pipiens, 24 h, read-out: Mosquito larvae Mortality (%)
Summary of the method: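 Early fourth-instar Culex pipiens pallens larvae from an indoor colony, 10 per beaker, exposed to test compound at 5 ppm in water, diluted from a 1000 ppm acetone mother solution. Blank: water containing 0.5 mL test solvent.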

[15] = tested on: tobacco mosaic virus (TMV); assay: Anti-TMV in vitro effect (half-leaf soaking); assay type: cell-based, tobacco mosaic virus (host Nicotiana tabacum L.cv.Xanthi NN); conditions: Tobacco mosaic virus, read-out: Relative inhibition rate (%) In vitro activity
[16] = tested on: potato late blight; assay: microbe, parasite or virus in culture; assay type: cell-based; conditions: Phytophthora infestans, 96 h, read-out: Bactericidal activity (%) potato late blight
[17] = tested on: Bipolaria maydis; assay: organism not typed; assay type: cell-based; conditions: read-out: Bactericidal activity (%) Bipolaria maydis
[18] = tested on: Sclerotinia scleotiorum; assay: Fungicidal (bactericidal) activity in vitro, PDA colony diameter; assay type: cell-based; conditions: Sclerotinia, 96 h; 50 mg/kg
[19] = tested on: Phytophthora capsici; assay: as above; assay type: cell-based; conditions: Phytophthora capsici, 96 h; 50 mg/kg
[20] = tested on: cucumber fusarium wilt; assay: as above; assay type: cell-based; conditions: Fusarium, 96 h; 50 mg/kg
[21] = tested on: Botrytis cinerea; assay: as above; assay type: cell-based; conditions: Botrytis cinerea, 96 h; 50 mg/kg
[22] = tested on: armyworms; assay type: in vivo; conditions: concentration 600 mg/kg

Row | Structure (SMILES) | inhibition of growth at 50 mg/kg [1] | inhibition of growth at 50 mg/kg [2] | mortality at 600 mg/kg [5] | inhibition of growth at 50 mg/kg [6] | inhibition of growth at 50 mg/kg [7] | mortality at 600 mg/kg [9] | inhibition of growth at 50 mg/kg [10] | inhibition of growth at 50 mg/kg [11] | inhibition of growth at 50 mg/kg [12] | inhibition at 50 mg/kg [13] | mortality at 5 mg/kg [14] | mortality at 10 mg/kg [14] | inhibition of growth at 50 mg/kg [16] | inhibition at 50 mg/kg [17] | inhibition of growth at 50 mg/kg [18] | inhibition of growth at 50 mg/kg [19] | inhibition of growth at 50 mg/kg [20] | inhibition of growth at 50 mg/kg [21] | Armyworm Mortality (%) [22] | further results
1 | Cc1nccc2c1[nH]c1cc(O)ccc12 [Harmol] | 50% | 28.6% | 20% | 46.2% | 23.8% | 45% | 46.4% | 26.3% | 42.1% | 23.8% | 30% | 100% | 22.7% | 31.8% | 5.9% | 25% | 26.9% | 9.1% | 50% | inhibition at 100 µg/mL [3]: 9.5%; inhibition at 500 µg/mL [3]: 36.7%; inhibition at 100 µg/mL [4]: 0%; inhibition at 500 µg/mL [4]: 30%; inhibition at 100 µg/mL [8]: 0%; inhibition at 500 µg/mL [8]: 35.1%; inhibition at 100 µg/mL [15]: 0%; inhibition at 500 µg/mL [15]: 32.6%
2 | Cc1nccc2c1[nH]c1ccc([N+](=O)[O-])cc12 [Ia-3] | 10.7% | 42.9% | 35% | 7.1% | 50% | 50% | 23.8% | 33.3% | 59.4% | 35.3% | 60% | 100% | 25% | 31.6% | 56% | 36.4% | 23.8% | 54.6% | 50% | inhibition at 100 µg/mL ([3]; treatment dose 100 μg/mL): 0%; inhibition at 500 µg/mL ([3]; treatment dose 500 μg/mL): 26.1%; inhibition at 100 µg/mL ([4]; treatment dose 100 μg/mL): 0%; inhibition at 500 µg/mL ([4]; treatment dose 500 μg/mL): 18.5%; inhibition at 100 µg/mL ([8]; treatment dose 100 μg/mL): 0%; inhibition at 500 µg/mL ([8]; treatment dose 500 μg/mL): 21.5%; activity against culex pipiens larvae (in words) ([14]; at 5 mg/kg): still show high activity; inhibition at 100 µg/mL ([15]; treatment dose 100 μg/mL): 0%; inhibition at 500 µg/mL ([15]; treatment dose 500 μg/mL): 15.7%
